Entries after “also recorded” stand apart in the source; their conditions may differ.
Legend:
Type in all cases: in vivo, human
[1] = tested on: Stargardt disease patients; experiment: TEASE-1: growth rate of atrophic retinal lesions by fundus autofluorescence imaging; set-up: Percentage Slowing of Atrophic Retinal Lesion Growth Rate With Gildeuretinol Acetate: concentration or dose not given beside the values; conditions: for effect on retinal degeneration / growth of atrophic retinal lesions (in words): 14 to 24 mg daily, up to 24 months, vs placebo and natural history
Description: (§1) The Tolerability and Effects of gildeuretinol acetate in Stargardt Disease (Clinical trial group 1 also known as TEASE-1) was a 24-month, multicenter, double-masked, placebo-controlled trial designed to evaluate the efficacy and safety of daily oral gildeuretinol acetate in slowing the growth of atrophic retinal lesions in Stargardt disease patients. The trial was conducted at multiple sites in the United States (NCT02402660).
(§2) Patients 12 years or older, clinically diagnosed with Stargardt disease, with at least one ABCA4 mutation, at least one eye presenting with well-demarcated areas of reduced fundus autofluorescence, and with any visual acuity, were eligible.
(§3) Patients were randomized to gildeuretinol acetate 14 mg capsules, gildeuretinol acetate 24 mg capsules, or placebo capsules, to be taken once daily for one year. After one year, 50% of randomly selected patients receiving placebo were crossed over in a 1:1 ratio to gildeuretinol acetate 14 mg capsules or gildeuretinol acetate 24 mg capsules for a second year.
(§4) Gildeuretinol acetate and placebo capsules were identical appearing capsules. Patients were advised to avoid vitamin A-containing supplements and liver-based products. Fruits and vegetables contain beta-carotene, not preformed vitamin A, and could be consumed without limitation. Trial visits occurred at 8 weeks and 6, 12, 18, and 24 months following screening and randomization.
Deidentified retinal images of patients not enrolled in the trial were included as a natural history cohort. This natural history cohort comprised patients diagnosed with Stargardt disease of any age, with two or more longitudinal fundus autofluorescence images taken at least four months apart over a maximum period of 2.5 years.
The prespecified primary efficacy endpoint was the growth rate of the square root area of atrophic retinal lesions measured by fundus autofluorescence retinal imaging comparing gildeuretinol versus the untreated arm (placebo combined with natural history). Only well-delineated and homogeneous retinal atrophic lesions≥0.2 mm^2 with a summed area≥0.5 mm^2 were included in the primary analysis.
The primary endpoint analysis used a linear mixed-effect model (LMEM) with repeated measures, conferring a higher power to detect smaller effects. All observed data, including both eyes, were utilized. Treatment duration was computed as a continuous measure for each visit based on years since randomization. Adjustments for baseline retinal atrophy used the baseline atrophic retinal lesion size as a fixed effect in the LMEM. Additional fixed effects included treatment arm, treatment duration, and interaction between the treatment arm and treatment duration. Random effects included patient, eye, grader to adjust for correlation between eyes within a patient, graders' assessment of an eye, and observations of the same eye over time. A random effect slope term was added to the effect of treatment duration. Patients who crossed over to gildeuretinol acetate after year one were included in the untreated arm from baseline to year one, then in the gildeuretinol acetate arm from […] upon crossing over to gildeuretinol acetate. The full analysis set (FAS) comprised all randomized patients who received at least one dose of the study drug.
Growth rates of atrophic retinal lesions were computed as two segmented lines over the 24-month treatment period; the first segment was between 0 and 6 months, and the second was between 6 and 24 months. All available data between 0 and 24 months was used to compute the slope of each segment. The primary efficacy endpoint was the slope of the second segment. No constraints were imposed on the Y-intercept. All growth rates were calculated on a per-year basis.
No imputations were made for missing data because the LMEM yields valid inferences under the assumption of a missing-at-random mechanism. […]

[2] = tested on: asymptomatic Stargardt disease patients; experiment: TEASE-3: fundus autofluorescence (FAF) imaging; conditions: 14 mg daily, two to four years, three patients
Description: (§5) The tolerability and effects of gildeuretinol acetate in Stargardt Disease (Clinical trial group 3 also known as TEASE-3) study was an open-label, multicenter, case control study designed to evaluate the efficacy and safety of gildeuretinol acetate on the progression of Stargardt disease in asymptomatic individuals. The trial was conducted at multiple sites in the United States.
To assess the safety and efficacy of gildeuretinol acetate in preventing vision loss in asymptomatic individuals, gildeuretinol acetate 14 mg capsules was administered to individuals showing early signs of retinal damage while maintaining approximately 20/20 vision and no subjective loss of vision. […]
(§6) Disease progression was monitored by best-corrected visual acuity (BCVA) reported in number of Early Treatment Diabetic Retinopathy Study (ETDRS) letters, fundus autofluorescence (FAF) imaging, loss of photoreceptors (as measured by the ellipsoid zone band loss) by optical coherence tomography (OCT) according to literature (1-3) and retinal sensitivity by microperimetry. […]

[3] = tested on: asymptomatic Stargardt disease patients; experiment: TEASE-3: retinal sensitivity by fundus-tracking microperimetry; conditions: 14 mg daily
Description: FIG. 4 is a graph showing mean retinal sensitivity (dB) over time in three asymptomatic Stargardt disease patients taking gildeuretinol acetate 14 mg daily. Lines show mean retinal sensitivity of both eyes. Lines are piecewise linear regressions with a knot time of 12 months. Each symbol represents a retinal sensitivity measurement for each eye. Patient 1 retinal sensitivity was measured with a Nidek MP-1 (Nidek, Gamagori, Japan). Patients 2 and 3 retinal sensitivity was measured with the CenterVue Macular Integrity Assessment or MAIA (CenterVue, Padova, Italy).
as §5, with “States. […]” for “States.”
as §6

[4] = TEASE-1: plasma gildeuretinol (replacement of plasma vitamin A); conditions: for percentage of gildeuretinol over total vitamin A (retinol + gildeuretinol): 8-week pharmacokinetic analysis, plasma
Description: as §1, §2, §3, §4

CC(=O)OC/C=C(C)/C=C/C=C(C)/C=C/C1=C(C)CCCC1(C)C [gildeuretinol acetate, C20-D3-retinol acetate]
effect on retinal degeneration / growth of atrophic retinal lesions (in words) [1]: met its prespecified primary efficacy endpoint, slowing the mean growth rate of atrophic retinal lesions relative to placebo and natural history; also recorded: slowed the expansion of retinal atrophic lesions; also recorded: slowed the progression of retinal degeneration; also recorded: slows retinal degeneration
effect on retinal degeneration / growth of atrophic retinal lesions (in words) ([1]; listed as Gildeuretinol acetate): met its prespecified primary efficacy endpoint, slowing the mean growth rate of atrophic retinal lesions
Percentage Slowing of Atrophic Retinal Lesion Growth Rate With Gildeuretinol Acetate ([1]; crossover patients: 12 months placebo vs. 12 months treatment): 21%
estimated treatment effect (slowing of atrophic retinal lesion growth) ([1]; depending on the calculation method): 20% to 30
Percentage Slowing of Atrophic Retinal Lesion Growth Rate With Gildeuretinol Acetate ([1]; excluding 2 natural history cases < 18 years old, 9 natural histories > 60 years old): 21%
Percentage Slowing of Atrophic Retinal Lesion Growth Rate With Gildeuretinol Acetate ([1]; excluding 3 randomized patients with one confirmed mutation): 20%
Percentage Slowing of Atrophic Retinal Lesion Growth Rate With Gildeuretinol Acetate ([1]; excluding 13 natural history cases without any confirmed ABCA4 mutations and 6 with one confirmed mutation): 20%
Percentage Slowing of Atrophic Retinal Lesion Growth Rate With Gildeuretinol Acetate ([1]; excluding 16 natural histories with only two follow up time points): 20%
Percentage Slowing of Atrophic Retinal Lesion Growth Rate With Gildeuretinol Acetate ([1]; excluding natural history, randomized patients only, one slope (mm^2)): 30%
Percentage Slowing of Atrophic Retinal Lesion Growth Rate With Gildeuretinol Acetate ([1]; excluding natural history, randomized patients only, two slopes (mm^2)): 23%
growth rate of atrophic retinal lesions ([1]; gildeuretinol acetate arm (14 mg and 24 mg pooled), square root area, slope 6 to 24 months): 0.19 mm/year
Percentage Slowing of Atrophic Retinal Lesion Growth Rate With Gildeuretinol Acetate ([1]; using a single-slope from 0 to 24 months (mm^2)): 31%
Percentage Slowing of Atrophic Retinal Lesion Growth Rate With Gildeuretinol Acetate ([1]; using untransformed areas of atrophic lesions (mm^2)): 28%
difference in growth rate of atrophic retinal lesions versus control ([1]; vs placebo + natural history, 95% CI 0.03 to 0.07): 0.05 mm/year
changes by FAF (flecks, autofluorescence, atrophy) [2]: none of the three treated asymptomatic Stargardt disease patients exhibited changes by FAF; also recorded: absence of FAF changes in all three Stargardt disease patients
rate of change of mean retinal sensitivity ([3]; first year of treatment): −3.1±1.5 dB/year
rate of change of mean retinal sensitivity (improvement) ([3]; years following the first year): +0.93±0.7 dB/year
replacement of vitamin A with gildeuretinol ([4]; 14 mg and 24 mg once daily, about 24 months): over 80%
replacement of plasma vitamin A sustained throughout the treatment period ([4]; 14 mg and 24 mg, throughout treatment): greater than 80%
percentage of gildeuretinol over total vitamin A (retinol + gildeuretinol) ([4]; 14 mg): 87%
percentage of gildeuretinol over total vitamin A (retinol + gildeuretinol) ([4]; 24 mg): 92%
replacement of serum vitamin A with gildeuretinol ([4]; 14 to 24 mg daily, within a matter of weeks): more than 80%
patients with over 80% of plasma vitamin A replaced ([4]; after six months): 39 out of 40
total plasma vitamin A and retinoic acid (combined vitamin A and gildeuretinol-derived forms) versus placebo ([4]; gildeuretinol acetate vs placebo groups): the same

— patent US20260345517A1, “DOSAGE REGIMENS FOR TREATING STARGARDT DISEASE” (Alkeus Pharmaceuticals, Inc., priority 2024, published 2026)
